In US12577206B2 (BRISTOL-MYERS SQUIBB COMPANY, priority 2020, dated 2026):
pEC50: −log10 of the molar value.

What was measured:
human FPR2 = target: T1, human FPR2 (Homo sapiens, UniProt P25090); test: FPR2 cyclic adenosine monophosphate (cAMP) assay; assay type: cell-based; conditions: CHO cells overexpressing human FPR2; forskolin 5 μM; inhibition of cAMP production; HTRF; read-out: hFPR2 cAMP2 EC50
T1 sequence (P25090 1-351): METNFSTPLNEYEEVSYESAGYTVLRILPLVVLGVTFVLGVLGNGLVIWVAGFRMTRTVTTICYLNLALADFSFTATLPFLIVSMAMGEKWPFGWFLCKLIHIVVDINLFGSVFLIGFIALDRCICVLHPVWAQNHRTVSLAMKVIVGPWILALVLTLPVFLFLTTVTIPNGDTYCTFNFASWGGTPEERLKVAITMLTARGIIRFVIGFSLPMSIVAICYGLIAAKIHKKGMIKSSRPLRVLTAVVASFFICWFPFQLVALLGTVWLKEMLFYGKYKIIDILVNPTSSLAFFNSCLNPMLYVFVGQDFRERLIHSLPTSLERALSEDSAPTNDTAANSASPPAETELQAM
In short: (§1)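 Inhibition of forskolin-stimulated cAMP (final forskolin 5 μM for FPR2, 10 μM for FPR1; IBMX 200 μM) was measured by HTRF in recombinant CHO cells after 30 min at room temperature.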

human FPR1 = target: T2, human FPR1 (Homo sapiens, UniProt P21462); test: FPR1 cyclic adenosine monophosphate (cAMP) assay; assay type: cell-based; conditions: CHO cells overexpressing human FPR1; forskolin 10 μM; inhibition of cAMP production; HTRF; read-out: hFPR1 cAMP2 EC50
T2 sequence (P21462 1-350): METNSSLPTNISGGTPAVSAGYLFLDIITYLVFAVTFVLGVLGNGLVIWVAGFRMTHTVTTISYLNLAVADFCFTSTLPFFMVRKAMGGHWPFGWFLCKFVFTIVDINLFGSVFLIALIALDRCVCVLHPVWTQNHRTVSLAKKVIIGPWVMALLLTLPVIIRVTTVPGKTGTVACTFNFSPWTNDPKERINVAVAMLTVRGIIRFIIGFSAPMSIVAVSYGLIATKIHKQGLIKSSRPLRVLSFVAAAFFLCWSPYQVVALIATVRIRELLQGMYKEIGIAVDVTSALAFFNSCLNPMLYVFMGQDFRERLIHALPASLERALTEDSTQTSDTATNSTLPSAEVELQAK
In short: as §1

pEC50 (human FPR2)	pEC50 (human FPR1)	Structure (SMILES)
8.70	< 5.00	COc1cc(F)c(-c2c(NC(=O)c3ccc(OC(F)F)cc3)c(=O)n(-c3nc(OCCO)ccc3C(F)(F)F)n2C)c(F)c1 [Example 285, N-[5-(2,6-difluoro-4-methoxyphenyl)-2-[6-(2-hydroxyethoxy)-3-(trifluoromethyl)pyridin-2-yl]-1-methyl-3-oxo-2,3-dihydro-1H-pyrazol-4-yl]-4-(difluoromethoxy)benzamide]
8.30	< 5.00	COc1cc(F)c(-c2c(NC(=O)c3ccc(OC(F)F)cc3)c(=O)n(-c3nc(C)ccc3C#N)n2C)c(F)c1 [Example 357, N-(2-(3-Cyano-6-methylpyridin-2-yl)-5-(2,6-difluoro-4-methoxyphenyl)-1-methyl-3-oxo-2,3-dihydro-1H-pyrazol-4-yl)-4-(difluoromethoxy)benzamide]
7.70	5.92	COc1ccc(-c2c(NC(=O)c3ccc(OC(F)F)cc3)c(=O)n(-c3ncccc3Cl)n2C)cc1 [Example 245, N-[2-(3-chloropyridin-2-yl)-5-(4-methoxyphenyl)-1-methyl-3-oxo-2,3-dihydro-1H-pyrazol-4-yl]-4-(difluoromethoxy)benzamide]
7.96	5.80	COc1cc(F)c(-c2c(NC(=O)c3ccc(OC(F)F)cc3)c(=O)n(-c3cncc(C)n3)n2C)c(F)c1 [Example 61, N-[5-(2,6-difluoro-4-methoxyphenyl)-1-methyl-2-(6-methylpyrazin-2-yl)-3-oxo-2,3-dihydro-1H-pyrazol-4-yl]-4-(difluoromethoxy)benzamide]
8.52	6.85	COc1cc(F)c(-c2c(NC(=O)c3ccc(OC(F)F)cc3)c(=O)n(-c3cccc(N4CCN(CC5CC5)CC4)n3)n2C)c(F)c1 [Example 207, N-(2-{6-[4-(cyclopropylmethyl)piperazin-1-yl]pyridin-2-yl}-5-(2,6-difluoro-4-methoxyphenyl)-1-methyl-3-oxo-2,3-dihydro-1H-pyrazol-4-yl)-4-(difluoromethoxy)benzamide]
7.89	6.01	COc1ccc(-c2c(NC(=O)c3ccc(OC(F)F)cc3)c(=O)n(-c3ncccc3C(F)(F)F)n2C)cc1 [Example 250, 4-(difluoromethoxy)-N-[5-(4-methoxyphenyl)-1-methyl-3-oxo-2-[3-(trifluoromethyl)pyridin-2-yl]-2,3-dihydro-1H-pyrazol-4-yl]benzamide]
8.30	< 5.00	COc1cc(C)nc(-n2c(=O)c(NC(=O)c3ccc(OC(F)F)cc3)c(-c3c(F)cc(OC)cc3F)n2C)c1 [Example 376, N-(5-(2,6-Difluoro-4-methoxyphenyl)-2-(4-methoxy-6-methylpyridin-2-yl)-1-methyl-3-oxo-2,3-dihydro-1H-pyrazol-4-yl)-4-(difluoromethoxy)benzamide]
8.70	5.72	COc1cc(OC(CO)C(F)(F)F)nc(-n2c(=O)c(NC(=O)c3ccc(OC(F)F)cc3)c(-c3c(F)cc(OC)cc3F)n2C)c1 (stereo not shown) [Example 381, N-(5-(2,6-Difluoro-4-methoxyphenyl)-2-(4-methoxy-6-((1,1,1-trifluoro-3-hydroxypropan-2-yl)oxy)pyridin-2-yl)-1-methyl-3-oxo-2,3-dihydro-1H-pyrazol-4-yl)-4-(difluoromethoxy)benzamide]
7.92	< 5.00	COc1cc(-n2c(=O)c(NC(=O)c3ccc(OC(F)F)cc3)c(-c3c(F)cc(OC)cc3F)n2C)nc(C(F)(F)F)c1 [Example 162, N-[5-(2,6-difluoro-4-methoxyphenyl)-2-[4-methoxy-6-(trifluoromethyl)pyridin-2-yl]-1-methyl-3-oxo-2,3-dihydro-1H-pyrazol-4-yl]-4-(difluoromethoxy)benzamide]
8.00	< 5.00	COc1cc(C2CCCN(CCO)C2)nc(-n2c(=O)c(NC(=O)c3ccc(OC(F)F)cc3)c(-c3c(F)cc(OC)cc3F)n2C)c1 (stereo not shown) [Example 340, N-(5-(2,6-Difluoro-4-methoxyphenyl)-2-(6-(1-(2-hydroxyethyl)piperidin-3-yl)-4-methoxypyridin-2-yl)-1-methyl-3-oxo-2,3-dihydro-1H-pyrazol-4-yl)-4-(difluoromethoxy)benzamide]
8.52	5.48	COc1cc(F)c(-c2c(NC(=O)c3ccc(OC(F)F)cc3)c(=O)n(-c3nc(N4CCN(CC(F)(F)F)CC4)ccc3C(F)(F)F)n2C)c(F)c1 [Example 269, N-[5-(2,6-difluoro-4-methoxyphenyl)-1-methyl-3-oxo-2-{6-[4-(2,2,2-trifluoroethyl)piperazin-1-yl]-3-(trifluoromethyl)pyridin-2-yl}-2,3-dihydro-1H-pyrazol-4-yl]-4-(difluoromethoxy)benzamide]
8.05	< 5.00	COc1cc(F)c(-c2c(NC(=O)c3ccc(OC(F)F)cc3)c(=O)n(-c3nc(C(F)(F)F)ccc3OCC3(C)COC3)n2C)c(F)c1 [Example 358, N-(5-(2,6-Difluoro-4-methoxyphenyl)-1-methyl-2-(3-((3-methyloxetan-3-yl)methoxy)-6-(trifluoromethyl)pyridin-2-yl)-3-oxo-2,3-dihydro-1H-pyrazol-4-yl)-4-(difluoromethoxy)benzamide]
7.60	5.70	COc1ccc(-c2c(NC(=O)c3ccc(OC(F)F)cc3)c(=O)n(-c3ncccc3Cl)n2C)c(F)c1 [Example 262, N-[2-(3-chloropyridin-2-yl)-5-(2-fluoro-4-methoxyphenyl)-1-methyl-3-oxo-2,3-dihydro-1H-pyrazol-4-yl]-4-(difluoromethoxy)benzamide]
7.52	6.54	COc1cccc(-n2c(=O)c(NC(=O)c3ccc(OC(F)F)cc3)c(-c3ccc(OC(F)F)cc3)n2C)n1 [Example 315, 4-(difluoromethoxy)-N-{5-[4-(difluoromethoxy)phenyl]-2-(6-methoxypyridin-2-yl)-1-methyl-3-oxo-2,3-dihydro-1H-pyrazol-4-yl}benzamide]
8.10	< 5.00	COc1cc(OCC(C)(F)F)nc(-n2c(=O)c(NC(=O)c3ccc(OC(F)F)cc3)c(-c3c(F)cc(OC)cc3F)n2C)c1 [Example 387, N-(5-(2,6-Difluoro-4-methoxyphenyl)-2-(6-(2,2-difluoropropoxy)-4-methoxypyridin-2-yl)-1-methyl-3-oxo-2,3-dihydro-1H-pyrazol-4-yl)-4-(difluoromethoxy)benzamide]
8.30	< 5.00	COc1cc(F)c(-c2c(NC(=O)c3ccc(OC(F)F)cc3)c(=O)n(-c3nc(C(F)(F)F)ccc3OCC3CCOC3)n2C)c(F)c1 (stereo not shown) [Example 369, N-(5-(2,6-Difluoro-4-methoxyphenyl)-1-methyl-3-oxo-2-(3-((tetrahydrofuran-3-yl)methoxy)-6-(trifluoromethyl)pyridin-2-yl)-2,3-dihydro-1H-pyrazol-4-yl)-4-(difluoromethoxy)benzamide]
7.23	6.21	COc1cc(F)c(-c2c(NC(=O)c3ccc(C4CC4)cc3)c(=O)n(-c3ccc(C4CC4)cn3)n2C)c(F)c1 [Example 53, 4-cyclopropyl-N-[2-(5-cyclopropylpyridin-2-yl)-5-(2,6-difluoro-4-methoxyphenyl)-1-methyl-3-oxo-2,3-dihydro-1H-pyrazol-4-yl]benzamide]
8.15	< 5.00	COc1cc(OCC2(CO)COC2)nc(-n2c(=O)c(NC(=O)c3ccc(OC(F)F)cc3)c(-c3c(F)cc(OC)cc3F)n2C)c1 [Example 384, N-(5-(2,6-Difluoro-4-methoxyphenyl)-2-(6-((3-(hydroxymethyl)oxetan-3-yl)methoxy)-4-methoxypyridin-2-yl)-1-methyl-3-oxo-2,3-dihydro-1H-pyrazol-4-yl)-4-(difluoromethoxy)benzamide]
8.40	6.11	COc1cc(F)c(-c2c(NC(=O)c3ccc(OC(F)F)cc3)c(=O)n(-c3cccc(C4(O)CCC4)n3)n2C)c(F)c1 [Example 87, N-(5-(2,6-difluoro-4-methoxyphenyl)-2-(6-(1-hydroxycyclobutyl)pyridin-2-yl)-1-methyl-3-oxo-2,3-dihydro-1H-pyrazol-4-yl)-4-(difluoromethoxy)benzamide]
7.96	5.09	COc1cc(F)c(-c2c(NC(=O)c3ccc(OC(F)F)cc3)c(=O)n(-c3cc(C)cc(C)c3)n2C)c(F)c1 [Example 109, N-[5-(2,6-difluoro-4-methoxyphenyl)-2-(3,5-dimethylphenyl)-1-methyl-3-oxo-2,3-dihydro-1H-pyrazol-4-yl]-4-(difluoromethoxy)benzamide]
